Where no end group is shown, it is not given here.
Test system: iPS cells (clone name: 201B2 or 201B7)
Assay: AFP dot blotting of iPS cell culture supernatant
Assay type: cell-based, human
Details: peptide concentration 6.0 μM; 8th to 20th day of culture in the presence of the peptide; FIG. 5
Procedure: The stem cell differentiation-inducing activities of the differentiation-inducing synthetic peptides (Samples 2-7) obtained in Example 1 above were evaluated by measuring changes over time in AFP expression levels (typically, extracellular excretion levels). AFP is a differentiation marker protein that is known to be in expressed in cells that have differentiated into liver precursor cells in particular of the endodermal cells. iPS cells that had been cultured and passaged in vitro were used as the test cells. The details of the evaluation test are as follows.
As in Example 3, the peptides of Samples 2 through 7 were added to a peptide concentration of 6.0 μM to added to medium containing cultured iPS cells (clone name: 201B2 or 201B7), and the cells were cultured (Sample Groups 2 through 7). A peptide free-group (comparative example) using cells cultured under the same conditions as in Sample groups 2 through 7 without the addition of a peptide was also established as a control group. […]
After completion of the antigen-antibody reaction with the secondary antibody, Lumina Crescendo Western HRP Substrate (Merck Millipore Corp.) was dripped on the nitrocellulose membrane to react the substrate with the HRP-labeled antibody (secondary antibody), and the target protein (AFP) was detected with a LAS-3000 luminescent image analyzer (Fuji Film).

**Q.** Which “amount of AFP in the culture supernatant in comparison with peptide-free group with the same culture time” value does the source give for “RLLLLLLVGLTAPALAKKRTLRKNDRKKR-COOH (RLLLLLLVGLTAPALAKKRTLRKNDRKKR-OH) [Sample 4]” here?
**A.** particularly dramatic

Source: patent US10100284B2, “Method for inducing differentiation of pluripotent stem cells into endodermal cells” (TOAGOSEI CO., LTD., priority 2013, dated 2018)
